Results taken from ChEMBL document CHEMBL1201862, “PubChem BioAssay data set” (2004).
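Tested at 5 concentrations; 48 h exposure; 96-well plates; endpoints linearly interpolated, else capped at highest concentration. The concentration for 50% growth inhibition is given as GI50.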 Active and inactive are the calls of the source. Cut-off read from the data, not from the text of the source: active = GI50 up to about 1.1 µM and inactive = higher.

Assays:
Assay in all cases: NCI anticancer screen, dose series, 48 h
[1] = tested on: 786-0
[2] = tested on: A498
[3] = tested on: ACHN
[4] = tested on: BT-549
[5] = tested on: CAKI-1
[6] = tested on: COLO 205
[7] = tested on: DU-145
[8] = tested on: EKVX
[9] = tested on: HCC 2998
[10] = tested on: HCT-116
[11] = tested on: HCT-15
[12] = tested on: HL-60
[13] = tested on: HOP-62
[14] = tested on: HT-29
[15] = tested on: Hs-578T
[16] = tested on: IGROV-1
[17] = tested on: K562
[18] = tested on: KM12
[19] = tested on: LOX IMVI
[20] = tested on: MCF7
[21] = tested on: MDA-MB-231
[22] = tested on: MDA-MB-435
[23] = tested on: MDA-N
[24] = tested on: MOLT-4
[25] = tested on: Malme-3M
[26] = tested on: NCI-H226
[27] = tested on: NCI-H23
[28] = tested on: NCI-H460
[29] = tested on: NCI-H522
[30] = tested on: NCI/ADR-RES
[31] = tested on: OVCAR-3
[32] = tested on: OVCAR-4
[33] = tested on: OVCAR-5
[34] = tested on: OVCAR-8
[35] = tested on: PC-3
[36] = tested on: RPMI-8226
[37] = tested on: RXF 393
[38] = tested on: SF-268
[39] = tested on: SF-295
[40] = tested on: SK-MEL-28
[41] = tested on: SK-MEL-2
[42] = tested on: SK-MEL-5
[43] = tested on: SN12C
[44] = tested on: SNB-19
[45] = tested on: SNB-75
[46] = tested on: SR
[47] = tested on: SW-620
[48] = tested on: TK-10
[49] = tested on: U-251
[50] = tested on: UACC-257
[51] = tested on: UACC-62
[52] = tested on: UO-31
[53] = tested on: A549
[54] = tested on: CCRF-CEM
[55] = tested on: HOP-92
[56] = tested on: M14
[57] = tested on: SF-539
[58] = tested on: SK-OV-3

NC(=O)CC[C@H]1C(=O)N=C(N)N1C(=O)OCc1ccccc1
GI50 [1]: > 100 µM (inactive) | GI50 [2]: > 100 µM (inactive) | GI50 [3]: > 100 µM (inactive) | GI50 [4]: > 100 µM (inactive) | GI50 [5]: > 100 µM (inactive) | GI50 [6]: > 100 µM (inactive) | GI50 [7]: > 100 µM (inactive) | GI50 [8]: > 100 µM (inactive) | GI50 [9]: > 100 µM (inactive) | GI50 [10]: > 100 µM (inactive) | GI50 [11]: > 100 µM | GI50 [12]: > 100 µM (inactive) | GI50 [13]: > 100 µM (inactive) | GI50 [14]: > 100 µM (inactive) | GI50 [15]: > 100 µM (inactive) | GI50 [16]: > 100 µM (inactive) | GI50 [17]: > 100 µM (inactive) | GI50 [18]: > 100 µM (inactive) | GI50 [19]: > 100 µM (inactive) | GI50 [20]: > 100 µM (inactive) | GI50 [21]: > 100 µM (inactive) | GI50 [22]: > 100 µM (inactive) | GI50 [23]: > 100 µM (inactive) | GI50 [24]: > 100 µM (inactive) | GI50 [25]: > 100 µM (inactive) | GI50 [26]: > 100 µM (inactive) | GI50 [27]: > 100 µM (inactive) | GI50 [28]: > 100 µM (inactive) | GI50 [29]: > 100 µM (inactive) | GI50 [30]: > 100 µM (inactive) | GI50 [31]: > 100 µM (inactive) | GI50 [32]: > 100 µM (inactive) | GI50 [33]: > 100 µM (inactive) | GI50 [34]: > 100 µM (inactive) | GI50 [35]: > 100 µM (inactive) | GI50 [36]: > 100 µM (inactive) | GI50 [37]: > 100 µM (inactive) | GI50 [38]: > 100 µM (inactive) | GI50 [39]: > 100 µM (inactive) | GI50 [40]: > 100 µM (inactive) | GI50 [41]: > 100 µM (inactive) | GI50 [42]: > 100 µM (inactive) | GI50 [43]: > 100 µM (inactive) | GI50 [44]: > 100 µM (inactive) | GI50 [45]: > 100 µM (inactive) | GI50 [46]: > 100 µM (inactive) | GI50 [47]: > 100 µM (inactive) | GI50 [48]: > 100 µM (inactive) | GI50 [49]: > 100 µM (inactive) | GI50 [50]: > 100 µM (inactive) | GI50 [51]: > 100 µM (inactive) | GI50 [52]: > 100 µM (inactive)

Cc1cc2cc3ccccc3cc2c(=O)[nH]1
GI50 [1]: > 10 µM (inactive) | GI50 [53]: > 10 µM (inactive) | GI50 [3]: > 10 µM (inactive) | GI50 [4]: > 10 µM (inactive) | GI50 [54]: > 10 µM (inactive) | GI50 [7]: > 10 µM (inactive) | GI50 [8]: > 10 µM (inactive) | GI50 [10]: > 10 µM (inactive) | GI50 [12]: > 10 µM (inactive) | GI50 [55]: > 10 µM (inactive) | GI50 [14]: > 10 µM (inactive) | GI50 [15]: > 10 µM (inactive) | GI50 [16]: > 10 µM (inactive) | GI50 [17]: > 10 µM (inactive) | GI50 [18]: > 10 µM (inactive) | GI50 [19]: > 10 µM (inactive) | GI50 [56]: > 10 µM (inactive) | GI50 [20]: > 10 µM (inactive) | GI50 [22]: > 10 µM (inactive) | GI50 [23]: > 10 µM (inactive) | GI50 [24]: > 10 µM (inactive) | GI50 [26]: > 10 µM (inactive) | GI50 [27]: > 10 µM (inactive) | GI50 [28]: > 10 µM (inactive) | GI50 [29]: > 10 µM (inactive) | GI50 [31]: > 10 µM (inactive) | GI50 [32]: > 10 µM (inactive) | GI50 [33]: > 10 µM (inactive) | GI50 [34]: > 10 µM (inactive) | GI50 [35]: > 10 µM (inactive) | GI50 [37]: > 10 µM (inactive) | GI50 [38]: > 10 µM (inactive) | GI50 [39]: > 10 µM (inactive) | GI50 [57]: > 10 µM (inactive) | GI50 [58]: > 10 µM (inactive) | GI50 [44]: > 10 µM (inactive) | GI50 [45]: > 10 µM (inactive) | GI50 [46]: > 10 µM (inactive) | GI50 [47]: > 10 µM (inactive) | GI50 [48]: > 10 µM (inactive) | GI50 [49]: > 10 µM (inactive) | GI50 [50]: > 10 µM (inactive) | GI50 [51]: > 10 µM (inactive) | GI50 [52]: > 10 µM (inactive)

COc1cccc(NC(=O)c2c(SC)c(C#N)c(=O)n(N)c2N)c1
GI50 [1]: 28.6 µM (inactive) | GI50 [2]: 79.3 µM (inactive) | GI50 [53]: 57.7 µM (inactive) | GI50 [3]: > 100 µM (inactive) | GI50 [4]: 61.8 µM (inactive) | GI50 [5]: > 100 µM (inactive) | GI50 [54]: 35.2 µM (inactive) | GI50 [6]: > 100 µM (inactive) | GI50 [8]: > 100 µM (inactive) | GI50 [9]: > 100 µM (inactive) | GI50 [10]: 35.2 µM (inactive) | GI50 [11]: 66.2 µM | GI50 [13]: 50.9 µM (inactive) | GI50 [55]: 47.4 µM (inactive) | GI50 [14]: 52 µM (inactive) | GI50 [15]: 41.1 µM (inactive) | GI50 [16]: > 100 µM (inactive) | GI50 [17]: 45.9 µM (inactive) | GI50 [18]: > 100 µM (inactive) | GI50 [19]: 88.1 µM (inactive) | GI50 [56]: 30.6 µM (inactive) | GI50 [20]: > 100 µM (inactive) | GI50 [21]: 95.7 µM (inactive) | GI50 [22]: 97.5 µM (inactive) | GI50 [23]: > 100 µM (inactive) | GI50 [24]: 41.8 µM (inactive) | GI50 [25]: > 100 µM (inactive) | GI50 [26]: > 100 µM (inactive) | GI50 [28]: 67.1 µM (inactive) | GI50 [29]: 42.3 µM (inactive) | GI50 [30]: 43 µM (inactive) | GI50 [32]: 40.9 µM (inactive) | GI50 [33]: 31.7 µM (inactive) | GI50 [34]: 47.9 µM (inactive) | GI50 [35]: 49.8 µM (inactive) | GI50 [37]: > 100 µM (inactive) | GI50 [38]: 72.1 µM (inactive) | GI50 [39]: 34.2 µM (inactive) | GI50 [57]: 66.4 µM (inactive) | GI50 [40]: > 100 µM (inactive) | GI50 [41]: > 100 µM (inactive) | GI50 [42]: 64.9 µM (inactive) | GI50 [58]: 44.5 µM (inactive) | GI50 [43]: > 100 µM (inactive) | GI50 [44]: 4.52 µM (inactive) | GI50 [45]: 1.46 µM (inactive) | GI50 [47]: 51.2 µM (inactive) | GI50 [48]: > 100 µM (inactive) | GI50 [49]: 68.4 µM (inactive) | GI50 [50]: > 100 µM (inactive) | GI50 [51]: 61.5 µM (inactive)
